Measured values: patent US20250152577A1, “Pharmaceutical Composition of Ethidium Bromide and Use in Treating Cancer” (RUIJIN HOSPITAL, SHANGHAI JIAOTONG UNIVERSITY SCHOOL OF …, priority 2022, published 2025)

How the values were obtained:
N2A Neuroglioma = test: Median lethal dosage (IC50) against tumor cell lines; type: cell-based; conditions: N2A neuroglioma tumor cells
LO2 = test: Median lethal dosage (IC50) against normal cell lines; type: cell-based; conditions: Homo sapiens, L02; LO2 normal cells
Nalm-6 Leukemia = test: Median lethal dosage (IC50) against tumor cell lines; type: cell-based; conditions: Homo sapiens; Nalm-6 leukemia tumor cells
[1] = Tolerability of gavage oral administration in mice; type: in vivo; conditions: gavage oral 20 mg/Kg per day
[2] = Toxicity of ethidium bromide: routine blood, liver and kidney functions; type: in vivo, nude mice; conditions: after 4 weeks of intravenous administration
Text: Finally, we also conducted a preliminary study on the toxicity of ethidium bromide by collecting whole blood and serum from the control and the dosing groups (administered intravenously for about 1 month) and tested their routine blood, and liver and kidney functions, respectively.

C2C12 = test: Median lethal dosage (IC50) against normal cell lines; type: cell-based; conditions: Mus musculus; C2C12 normal cells
[3] = system: colorectal cancer cells RKO; test: Intraperitoneal injection of colorectal cancer cells RKO in nude mice, intravenous administration; type: in vivo
Text: In order to further investigate whether ethidium bromide also has a better inhibitory effect on other types of tumors, we administered nude mice 2 weeks after the intraperitoneal injection of 2×10^6 colorectal cancer cells RKO, and then tested the anti-tumor effect of ethidium bromide after 4 weeks of intravenous administration, as described above.

normal cells [4] = test: Median lethal dosage, summary over normal cells; type: cell-based; conditions: mostly, normal cells of Table 1; read-out: median lethal dosages against normal cells
[5] = system: pancreatic cancer cells Panel; test: Mitochondrial function by Seahorse; type: cell-based, human; conditions: Seahorse after 6 hours; concentration-dependent
Experimental: (§1) To further verify the effect of ethidium bromide on mitochondrial function, various cell lines were treated with ethidium bromide and mitochondrial function was tested by using Seahorse after 6 hours.

[6] = system: colorectal cancer cells RKO; test: Mitochondrial function by Seahorse; type: cell-based, human; conditions: Seahorse after 6 hours; concentration-dependent
Experimental: as §1

[7] = cited from earlier work
Reh Leukemia = test: Median lethal dosage (IC50) against tumor cell lines; type: cell-based; conditions: Reh leukemia tumor cells
[8] = system: colorectal cancer cells RKO; test: Scratch assay of cultured cells (migration); type: cell-based, human
Text: (§2) Ectopic metastasis of tumors is the biggest challenge in tumor treatment.

[9] = system: pancreatic tumor cells Panc1; test: Scratch assay of cultured cells (migration); type: cell-based, human
Text: as §2

AGS Gastric cancer = test: Median lethal dosage (IC50) against tumor cell lines; type: cell-based; conditions: AGS gastric cancer tumor cells
normal cells [10] = test: Cell death/apoptosis (PI Sub-G1 flow cytometry, MTT, Annexin V); type: cell-based; conditions: 48 h
Experimental: (§3) Ethidium bromide was purchased from Sigma (E7637) and treated as follows. Cancer and normal cells of various tissue origins with approximately 40% growth abundance were treated with 0.1, 0.4, and 1 μg/ml for 48 h, followed by PI staining and cycle detection by flow cytometry, statistical analysis of genomic DNA break (Sub-G1) cells, or cell viability by MTT method.
(§4) In support of this, cancer cells and normal cells from various tissues with growth abundance of about 40% were treated with 1, 2, and 5 μM for 48 h, respectively, and then observed the growth of the cells by light microscopy, followed by PI staining, detection and statistical analysis of genomic DNA break (Sub-G1) cells by flow cytometry (FIG. 3), or cell apoptosis detection by Annexin V staining method (FIG. 4).

cancer cells = test: as above; type: cell-based; conditions: 48 h
Experimental: as §3, §4

tumor cells = test: Median lethal dosage, summary over tumor cells; type: cell-based; conditions: vast majority of the tumor cells of Table 1; read-out: median lethal dosages against tumor cells
[11] = system: pancreatic cancer cells Panel; test: Ectopic lung metastasis after intravenous injection of pancreatic cancer cells in nude mice; type: in vivo; conditions: intravenous 5 mg/Kg per day, start about 3 weeks after cell injection, 4 weeks
Experimental: In addition, to further investigate the effect of ethidium bromide on ectopic tissue metastatic tumors, we injected 2×10^6 pancreatic cancer cells Panel intravenously into nude mice. After ectopic tissue metastasis, tumors formed primarily in the lungs. After approximately 3 weeks, intravenous administration of 5 mg/Kg ethidium bromide per day was started after the tumor had already grown in the lung tissue (FIG. 15A). The mice were sacrificed after 4 weeks of administration and the lungs were removed for test.

[12] = intravenous, start 2 weeks after cell injection, 4 weeks

## CC[n+]1c(-c2ccccc2)c2cc(N)ccc2c2ccc(N)cc21 [ethidium bromide, Ethidium bromide]
N2A Neuroglioma
  IC50: 15.7 µM
LO2
  IC50: 50.7 µM
Nalm-6 Leukemia
  IC50: 1.17 µM
[1]
  tolerability: well tolerated
[2]; serum
  liver or kidney function vs control: no significant difference in liver or kidney function
[2]; whole blood
  blood routine data (hemoglobin, platelets, leukocytes): very normal
C2C12
  IC50: 85.5 µM
[3]; intravenous, 4 weeks
  liver and spleen weights vs control: no significant difference in liver and spleen weights
[3]; [12]
  abdominal tumors vs control: significantly smaller than those in the control group
  mice with tumors completely cleared: approximately 25%
[3]; later stage, dosing group
  body weight: slight decrease in body weight
Normal cells [4]
  IC50: > 50 µM
[5]
  oxygen consumption, glycolysis level, glycolysis rate: significantly reduced
[6]
  oxygen consumption, glycolysis level, glycolysis rate: significantly reduced
[7]; National Toxicology Program, 1239-45-8
  DNA mutations and carcinogenesis in cells or organisms: no evidence that ethidium bromide can induce DNA mutations and carcinogenesis
[7]; long-term treatment, Mutation Research, 174(1986) 175-178
  genetic mutations in cells: do not create genetic mutations
Reh Leukemia
  IC50: 2.23 µM
[8]
  migration of tumor cells: significantly inhibit the migration
[9]
  migration of tumor cells: significantly inhibit the migration
AGS Gastric cancer
  IC50: 0.71 µM
Normal cells [10]; 0.1, 0.4, 1 μg/ml, Chang, LO2, 3T3-L1
  growth inhibition / apoptosis: inhibited growth at most and cannot induce apoptosis
Normal cells [10]; 1, 2, 5 μM, LO2, chang, GES1
  growth inhibition / apoptosis: only inhibited growth and cannot induce apoptosis
Cancer cells; 0.1, 0.4, 1 μg/ml, SK-Hep1, BEL-7404, B16
  induction of cell death: can selectively induce the death of a wide range of cancer cells
Cancer cells; 1, 2, 5 μM, SK-Hep1, 7404, AGS, RKO
  induction of cell death: can selectively induce the death of cancer cells in many different tissues
Tumor cells
  IC50: < 10 µM
[11]
  tumors in the lung tissues vs control: significantly smaller than those in the control group
